Source: patent US20160082066A1, “Method Use of Polymethoxyflavones (PMFs) in Body Composition Management” (priority 2014, published 2016)

What was measured:
3T3-L1 preadipocytes [1] = assay: Oil Red O lipid accumulation in differentiating 3T3-L1 preadipocytes; type: cell-based; conditions: DMI 2 days, then insulin medium with substance 8 days; absorbance at 520 nm; FIG. 1-3
Experimental: Ten days after the initiation of differentiation, lipid accumulation was measured by Oil Red O staining.
3T3-L1 preadipocytes were incubated with DMI (DMEM with IBMX, DEX and insulin) for two days, and then replaced with DMEM medium containing insulin with or without ECG, EGCG and PMFs at indicated concentrations, respectively for 8 days. The 3T3-L1preadipocytes were stained with Oil Red O and photographed. Lipid content was extracted from Oil Red O stained cells by 2-propanol and quantified with spectrophotometric analysis at 520 nm.
3T3-L1 preadipocytes were incubated with DMI (DMEM with IBMX, DEX and insulin) for two days, and then replaced with DMEM medium containing insulin with or without ECG, EGCG and PMFs at indicated concentrations, respectively for 8 days. The 3T3-L1preadipocytes were stained with Oil Red 0. Lipid content was extracted from Oil Red O stained cells by 2-propanol and quantified with spectrophotometric analysis at 520 nm.
3T3-L1 preadipocytes were incubated with DMI (DMEM with IBMX, DEX and insulin) for two days, and then replaced with DMEM medium containing insulin with or without Lychee extracts and PMFs, or in combination at indicated concentrations, respectively for 8 days. […] Lipid content was extracted from Oil Red O stained cells by 2-propanol and quantified with spectrophotometric analysis at 520 nm.

[2] = target: T1, catechol-O-methyltransferase (Homo sapiens, UniProt P21964); conditions: cited from earlier work
T1 sequence (P21964 1-271): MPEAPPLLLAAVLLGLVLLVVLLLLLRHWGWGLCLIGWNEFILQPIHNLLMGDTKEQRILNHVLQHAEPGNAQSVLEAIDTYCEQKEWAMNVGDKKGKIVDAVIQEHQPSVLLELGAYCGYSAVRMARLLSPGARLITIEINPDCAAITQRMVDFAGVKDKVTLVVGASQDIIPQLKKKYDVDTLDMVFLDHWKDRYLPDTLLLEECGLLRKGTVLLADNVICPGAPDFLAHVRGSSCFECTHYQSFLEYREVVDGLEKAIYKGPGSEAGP

[3] = EGCG stand alone; young, healthy adults; cited from earlier work
3T3-L1 preadipocytes [4] = conditions: tissue culture; cited from earlier work
[5] = system: high-fat diet-induced obesity in mice; conditions: cited from earlier work

SMILES	lipid accumulation in differentiated adipocytes (Oil Red O staining) (3T3-L1 preadipocytes [1])	catechol-O-methyltransferase activity [2]	resting metabolic rate (RMR) and thermal effects of feeding (TEF) [3]	differentiation of 3T3-L1 preadipocytes into adipocytes (3T3-L1 preadipocytes [4])	obesity and insulin resistance [5]
O=C(O[C@@H]1Cc2c(O)cc(O)cc2O[C@@H]1c1ccc(O)c(O)c1)c1cc(O)c(O)c(O)c1 [ECG, epicatechin gallates]	decreased only slightly				
O=C(O[C@@H]1Cc2c(O)cc(O)cc2O[C@@H]1c1cc(O)c(O)c(O)c1)c1cc(O)c(O)c(O)c1 [EGCG, epigallocatechin gallates]	decreased only slightly	inhibits	would not increase		
COc1ccc(-c2cc(=O)c3c(OC)c(OC)c(OC)c(OC)c3o2)cc1OC [nobiletin]				potently suppressing	alleviating obesity and insulin resistance
